# Experiments:
# Bowes (melanoma) = test: In vitro cytotoxicity against human tumor cells, Bowes; format: cell-based; settings: 72 h
# Experimental: (§1) A suspension of cells in a culture medium was transferred into wells in a microplate in an amount of 5×10^4 cells/well. Test sample diluted with a culture medium was added to the suspension in each well, and the mixture was incubated at 37° C. for 3 days in an atmosphere of air containing 5% carbon dioxide. After skimming, sticking cells were dyed which crystalviolet for 10 minutes. After washing with water, 1% sodium lauryl sulfate solution was added to each well, and the absrobancy (optical density) at […] was measured. "% inhibition" was calculated from the following equation. [formula]
# Ehrlich (carcinoma) = test: In vitro cytotoxicity against mouse tumor cells, Ehrlich; format: cell-based; settings: Ehrlich, 72 h
# Experimental: (§2) A suspension of cells in a culture medium was transferred into wells in a microplate in an amount of 1×10^5 cells/wall. Test sample diluted with a culture medium was added to the suspension in each well, and the mixture was incubated on the medium at 37° C. for 3 days in atmosphere of air containing 5% carbon dioxide. Thereafter, the incubated cells were recovered from the microplate and the number of live cells was counted by the dye exclusion test using a 0.5% solution of trypan blue and by using a hemocytomer.
# ACHN (kidney cancer) = test: In vitro cytotoxicity against human tumor cells, ACHN; format: cell-based; settings: 72 h
# Experimental: as §1
# MH 134 (liver cancer) = test: In vitro cytotoxicity against mouse tumor cells, MH 134; format: cell-based; settings: MH 134, 72 h
# Experimental: as §2
# [1] = tested on: liver cancer (MH-134) cells; test: Inhibition of spontaneous metastasis (to the lymph node) of liver cancer (MH-134) cells in mice; format: in vivo, C3 H/He/SLC mice; settings: 20th day
# Experimental: (a) Inhibition of spontaneous metastasis (to the lymph node) of liver cancer (MH-134) cells in mice
# MH-134 tumor cells, 1×10^6, on Day 7 after intraperitoneal transplantation to C3 H/He/SLC mice were transplanted to the right leg. On the 11th day after the transplantation, the right leg portion wherein the cancer cells were transplanted were cut off. The test compounds were administered orally in a definite dose 24 hours after the transplantation. In order to confirm metastasis-inhibiting effect, on 20th day of the transplantation the mice were anatomised to observe the metastasis to the lymph node in the inguinal portion. [formula] Further, the weight of the lymph node metastasis tumor in the inguinal portion of anatomised mice was measured. [formula]
# MM-46 ascites tumor = test: Anti-tumor test against mice mammary cancer MM-46 ascites tumor; format: in vivo, C3 H/He/CRJ mice
# Experimental: (§3) MM-46 tumor cells, 1×10^6, on Day 7 after intraperitoneal transplantation to C3 H/He/CRJ mice (5 week age, male) of 10 mice each being grouped in one. The active component was intraperitoneally administered in a definite dose 24 hours after the transplantation according to the schedule shown in Table 5. An effect of tumor growth inhibition was evaluated by a percentage of the median survival time of the administered group versus that of the control group, according to the following equation.
# (§4) T: median survival day of the administered group
# (§5) C: median survival day of the control group
# L-1210 = test: In vitro cytotoxicity against mouse tumor cells, L-1210; format: cell-based; settings: L1210, 72 h
# Experimental: as §2
# [2] = tested on: Meth A (methylcholanthrene-induced cancer); test: In vitro cytotoxicity against mouse tumor cells, Meth A; format: cell-based; settings: Meth-A, 72 h
# Experimental: as §2
# Ehrlich ascites tumor = test: Anti-tumor effect against Ehrlich ascites tumor; format: in vivo, ddY/SLC mice; settings: 25 mg/kg i.p., 1-9 Days
# Experimental: as §3, with “Ehlrich” for “MM-46”, “ddY/SLC mice were intraperitoneally transplanted to ddY/SLC” for “C3 H/He/CRJ”, “4.” for “5.”, “day” for “time”
# as §4, §5
# [3] = tested on: KB (nasal cavity & pharynx cancer); test: In vitro cytotoxicity against human tumor cells, KB; format: cell-based; settings: 72 h
# Experimental: as §1
# Ehrlich solid tumor = test: Anti-tumor test against Ehrlich solid tumor; format: in vivo, ddY/SLC mice
# Experimental: Ehrlich tumor cells, 2×10^6, on Day 7 after intraperitoneal transplantation to ddY/SLC mice were subcutaneously transplanted in the left abdomen of ddY/SLC mice (5 week age, male), 10 each grouped into one. The active component was intraperitoneally or orally administered in a definite dose 24 hours after the transplantation, according to the schedule shown in Table 1 (A), (B) or (C). An effect of inhibiting growth of tumor was compared, by measuring the long diameter and short diameter of the tumor on 14, 20 and 21 Days after the transplantation, calculating the tumor size (mm^2) and determining a tumor growth inhibition rate of the group administered with the active component to the control group according to the following equation:
# Growth inhibition rate (%)=(C-T)/C×100
# T: means tumor size (mm^2) in the active component-administered group
# C: mean tumor size (mm^2) in the control group
# [4] = 50 mg/kg oral, 1, 3, 5, 7, 9, 11, 13 and 15 days
# [5] = 100 mg/kg oral, 1, 3, 5, 7, 9, 11, 13 and 15 days
# [6] = 6.25 mg/kg i.p., 1, 2, 3, 4 and 6 Days
# [7] = 12.5 mg/kg i.p., 1, 2, 3, 4 and 6 Days
# [8] = 25 mg/kg i.p., 1, 2, 3, 4 and 6 Days
# [9] = Day 14, 2.5 mg/kg i.p., Days 1, 2, 3, 5 & 6
# [10] = Day 14, 12.5 mg/kg i.p., Days 1, 2, 3, 4, 6, 7, 8, 9
# [11] = Day 14, 25 mg/kg i.p., Days 1, 2, 3, 4 & 7
# [12] = Day 14, 25 mg/kg i.p., Days 1, 2, 3, 4, 6, 7, 8, 9
# [13] = Day 21, 2.5 mg/kg i.p., Days 1, 2, 3, 5 & 6
# [14] = Day 21, 12.5 mg/kg i.p., Days 1, 2, 3, 4, 6, 7, 8, 9
# [15] = Day 21, 25 mg/kg i.p., Days 1, 2, 3, 4 & 7
# [16] = Day 21, 25 mg/kg i.p., Days 1, 2, 3, 4, 6, 7, 8, 9
structure (smiles),measurement,setting,value
"O=c1[nH]cc(F)c(=O)[nH]1 [5-Fluorouracil, reference compound]",IC50,Bowes (melanoma),0.61 µg/mL
same,IC50,Ehrlich (carcinoma),0.05 µg/mL
same,IC50,ACHN (kidney cancer),0.1 µg/mL
same,IC50,MH 134 (liver cancer),9 ng/mL
same,Growth inhibition of the metastasis tumor,[1]; [4],48.7%
same,Metastasis-inhibition rate,[1]; [4],17.7%
same,Growth inhibition of the metastasis tumor,[1]; [5],74.2%
same,Metastasis-inhibition rate,[1]; [5],41.2%
same,Median Survival Day,MM-46 ascites tumor; [6],16.0 days
same,Survivors (90 days),MM-46 ascites tumor; [6],0/10
same,T/C (median survival),MM-46 ascites tumor; [6],213.3%
same,Median Survival Day,MM-46 ascites tumor; [7],17.0 days
same,Survivors (90 days),MM-46 ascites tumor; [7],0/10
same,T/C (median survival),MM-46 ascites tumor; [7],226.7%
same,Median Survival Day,MM-46 ascites tumor; [8],20.0 days
same,Survivors (90 days),MM-46 ascites tumor; [8],0/10
same,T/C (median survival),MM-46 ascites tumor; [8],266.7%
same,IC50,L-1210,0.06 µg/mL
same,IC50,[2],0.1 µg/mL
same,Median Survival Day,Ehrlich ascites tumor,24.5 days
same,No. of 40-day Survivors,Ehrlich ascites tumor,0/8
same,T/C (median survival),Ehrlich ascites tumor,163.3%
same,IC50,[3],1.75 µg/mL
same,Growth Inhibition Rate,Ehrlich solid tumor; [9],42.9%
same,Size of Tumor,Ehrlich solid tumor; [9],133.7 ± 61.1 mm^2
same,Growth Inhibition Rate,Ehrlich solid tumor; [10],44.1%
same,Size of Tumor,Ehrlich solid tumor; [10],142.6 ± 36.9 mm^2
same,Growth Inhibition Rate,Ehrlich solid tumor; [11],40.0%
same,Size of Tumor,Ehrlich solid tumor; [11],86.7 ± 35.1 mm^2
same,Growth Inhibition Rate,Ehrlich solid tumor; [12],54.4%
same,Size of Tumor,Ehrlich solid tumor; [12],116.3 ± 44.0 mm^2
same,Growth Inhibition Rate,Ehrlich solid tumor; [13],42.4%
same,Size of Tumor,Ehrlich solid tumor; [13],306.8 ± 166.8 mm^2
same,Growth Inhibition Rate,Ehrlich solid tumor; [14],34.2%
same,Size of Tumor,Ehrlich solid tumor; [14],280.6 ± 68.9 mm^2
same,Growth Inhibition Rate,Ehrlich solid tumor; [15],57.5%
same,Size of Tumor,Ehrlich solid tumor; [15],217.8 ± 126.2 mm^2
same,Growth Inhibition Rate,Ehrlich solid tumor; [16],40.8%
same,Size of Tumor,Ehrlich solid tumor; [16],252.3 ± 100.3 mm^2

# From US4758580A, “Inhibiting growth of tumors with certain substituted phenoxy dimethyl alkanoic acids, esters or salts” (Yamanouchi Pharmaceutical Co., Ltd., priority 1985, dated 1988)
